Laboratory results reported in patent US7342122B2, “Bisphosphonate complexes” (priority 2003, dated 2008).
“Also recorded” adds a separate entry of the source. Blank lines part the entries; values can stand above or below the compound they belong to.

Key:
[1] = In vitro assay, adsorption of Pt complexes to hydroxyapatite; assay type: binding; conditions: for adsorption percentage to hydroxyapatite: 100 mg of hydroxyapatite, HEPES buffer pD=7.8, 1.5 h, 37° C.; for adsorption to hydroxyapatite, comparison in words: FIGS. 1 and 2, 31P NMR, 1H NMR, AAS
Experimental: Each of a 5, 10, 15, 25, 35, and 100 mg sample of hydroxyapatite (Bio-Rad Macro-Prep Ceramic Hydroxyapatite, type I, 40 μm) was added to 2 ml of HEPES buffer at pD=7.8 and the resulting mixture was shaken for about 24 h at 37° C. Then, 100 μl of each complexes dissolved in HEPES buffer at pD=7.8 was added and the mixtures were shaken for 1.5 h at 37° C. All suspensions were filtered, and these solutions were measured by ^31P NMR (Varian VXR-300S) and Atomic Absorption Spectrometry (Hitachi Z-5710 AAS) of platinum or, for carboplatin, by ^1H NMR. Percentage adsorption to hydroxyapatite was calculated as follows. From NMR: Binding percentage/%=[(A−B)/A]×100 From AAS: Binding percentage/%=[(C−D)/C]×100 • A=the integration intensity of Pt(II) complex • B=the integration intensity of Pt(II) complex after reacted with hydroxyapatite • C=the concentration of Pt(II) complex • D=the concentration of Pt(II) complex after reacted with hydroxyapatite

HBC-5 = experiment: Cell growth inhibition, breast cancer cell line HBC-5; assay type: cell-based; conditions: HBC-5, breast cancer cell line
Experimental: (§1) KB cells were purchased from Human Science Research Resource Bank (Osaka, Japan). The cells were cultured in Earle's MEM (GIBCO BRL) containing 10% FBS (Bio Whittaker) at 37° C. under 5% CO2. After 24 hours the test compounds were added to the cells at the indicated concentrations. 72 hours later the cells were stained with tripan blue and counted manually. IC50 is calculated as the concentration (aqueous solution) of complex required to inhibit growth of cells by 50%.
(§2) In a similar fashion a representative number of examples of compounds of the invention were tested for their ability to inhibit the growth/proliferation of cell types representing a number of different cancers. The results are provided in Tables 4-13, below, which provide the Inhibition Constants (IC50, μM) for each compound across various cell lines.

HCC2998 = experiment: Cell growth inhibition, colon cancer cell line HCC2998; assay type: cell-based
Experimental: as §1, §2

HCT-116 = experiment: Cell growth inhibition, colon cancer cell line HCT-116; assay type: cell-based; conditions: HCT-116, colon cancer cell line
Experimental: as §1, §2

SF-539 = experiment: Cell growth inhibition, brain cancer cell line SF-539; assay type: cell-based; conditions: SF-539, brain cancer cell line
Experimental: as §1, §2

ACHN = experiment: Cell growth inhibition, renal cancer ACHN; assay type: cell-based
Experimental: as §1, §2

HBC-4 = experiment: Cell growth inhibition, breast cancer cell line HBC-4; assay type: cell-based; conditions: HBC-4, breast cancer cell line
Experimental: as §1, §2

MKN74 = experiment: Cell growth inhibition, human stomach cancer MKN74; assay type: cell-based
Experimental: as §1, §2

[2] = test system: all cell types (cancer cell lines of Tables 4-12); experiment: Cell growth inhibition, mean over all cell types of the panel; assay type: cell-based; conditions: mean over all cell lines of Tables 4-12
Experimental: as §1, §2

NCI-H460 = experiment: Cell growth inhibition, lung cancer cell line NCI-H460; assay type: cell-based
Experimental: as §1, §2

St-4 = experiment: Cell growth inhibition, human stomach cancer St-4; assay type: cell-based; conditions: St-4, human stomach cancer
Experimental: as §1, §2

SF-295 = experiment: Cell growth inhibition, brain cancer cell line SF-295; assay type: cell-based; conditions: SF-295, brain cancer cell line
Experimental: as §1, §2

KM-12 = experiment: Cell growth inhibition, colon cancer cell line KM-12; assay type: cell-based; conditions: KM-12, colon cancer cell line
Experimental: as §1, §2

PC-3 = experiment: Cell growth inhibition, prostatic cancer PC-3; assay type: cell-based; conditions: PC-3, prostatic cancer
Experimental: as §1, §2

OVCAR-8 = experiment: Cell growth inhibition, ovarian cancer cell line OVCAR-8; assay type: cell-based; conditions: OVCAR-8, ovarian cancer cell line
Experimental: as §1, §2

BSY-1 = experiment: Cell growth inhibition, breast cancer cell line BSY-1; assay type: cell-based; conditions: BSY-1, breast cancer cell line
Experimental: as §1, §2

SK-OV-3 = experiment: Cell growth inhibition, ovarian cancer cell line SK-OV-3; assay type: cell-based; conditions: SK-OV-3, ovarian cancer cell line
Experimental: as §1, §2

KB cells = experiment: In vitro assay, cell growth inhibition (KB cells); assay type: cell-based; conditions: 72 hours; for IC50: concentration to inhibit growth of cells by 50%
Experimental: as §1

OVCAR-5 = experiment: Cell growth inhibition, ovarian cancer cell line OVCAR-5; assay type: cell-based; conditions: OVCAR-5, ovarian cancer cell line
Experimental: as §1, §2

OVCAR-4 = experiment: Cell growth inhibition, ovarian cancer cell line OVCAR-4; assay type: cell-based; conditions: OVCAR-4, ovarian cancer cell line
Experimental: as §1, §2

U251 = experiment: Cell growth inhibition, brain cancer cell line U251; assay type: cell-based
Experimental: as §1, §2

LOX-IMVI = experiment: Cell growth inhibition, melanoma cell line LOX-IMVI; assay type: cell-based
Experimental: as §1, §2

DU-145 = experiment: Cell growth inhibition, prostatic cancer DU-145; assay type: cell-based, human; conditions: DU-145, prostatic cancer
Experimental: as §1, §2

MDA-MB-231 = experiment: Cell growth inhibition, breast cancer cell line MDA-MB-231; assay type: cell-based; conditions: MDA-MB-231, breast cancer cell line
Experimental: as §1, §2

A549 = experiment: Cell growth inhibition, lung cancer cell line A549; assay type: cell-based
Experimental: as §1, §2

NCI-H23 = experiment: Cell growth inhibition, lung cancer cell line NCI-H23; assay type: cell-based
Experimental: as §1, §2

SF-268 = experiment: Cell growth inhibition, brain cancer cell line SF-268; assay type: cell-based; conditions: SF-268, brain cancer cell line
Experimental: as §1, §2

RXF-631L = experiment: Cell growth inhibition, renal cancer RXF-631L; assay type: cell-based
Experimental: as §1, §2

DMS273 = experiment: Cell growth inhibition, lung cancer cell line DMS273; assay type: cell-based
Experimental: as §1, §2

MCF-7 = experiment: Cell growth inhibition, breast cancer cell line MCF-7; assay type: cell-based; conditions: MCF-7, breast cancer cell line
Experimental: as §1, §2

NCI-H226 = experiment: Cell growth inhibition, lung cancer cell line NCI-H226; assay type: cell-based
Experimental: as §1, §2

OVCAR-3 = experiment: Cell growth inhibition, ovarian cancer cell line OVCAR-3; assay type: cell-based; conditions: OVCAR-3, ovarian cancer cell line
Experimental: as §1, §2

MKN7 = experiment: Cell growth inhibition, human stomach cancer MKN7; assay type: cell-based
Experimental: as §1, §2

MKN45 = experiment: Cell growth inhibition, human stomach cancer MKN45; assay type: cell-based
Experimental: as §1, §2

SNB-75 = experiment: Cell growth inhibition, brain cancer cell line SNB-75; assay type: cell-based; conditions: SNB-75, brain cancer cell line
Experimental: as §1, §2

MKN28 = experiment: Cell growth inhibition, human stomach cancer MKN28; assay type: cell-based
Experimental: as §1, §2

SNB-78 = experiment: Cell growth inhibition, brain cancer cell line SNB-78; assay type: cell-based; conditions: SNB-78, brain cancer cell line
Experimental: as §1, §2

HT-29 = experiment: Cell growth inhibition, colon cancer cell line HT-29; assay type: cell-based; conditions: HT-29, colon cancer cell line
Experimental: as §1, §2

DMS114 = experiment: Cell growth inhibition, lung cancer cell line DMS114; assay type: cell-based
Experimental: as §1, §2

MKN1 = experiment: Cell growth inhibition, human stomach cancer MKN1; assay type: cell-based
Experimental: as §1, §2

NCI-H522 = experiment: Cell growth inhibition, lung cancer cell line NCI-H522; assay type: cell-based
Experimental: as §1, §2

log10 IC50 (M) (HBC-5): -5.16
log10 IC50 (M) (HCT-116): -4.41
log10 IC50 (M) (ACHN): -5.37
log10 IC50 (M) (HBC-4): -4.27
log10 IC50 (M) [2]: -4.38
log10 IC50 (M) (NCI-H460): -4.46
log10 IC50 (M) (SF-295): -4.46
log10 IC50 (M) (PC-3): -4.04
log10 IC50 (M) (BSY-1): -4.71
log10 IC50 (M) (SK-OV-3): -5.2
log10 IC50 (M) (OVCAR-4): -4.42
log10 IC50 (M) (MKN1): -4.42
log10 IC50 (M) (LOX-IMVI): -4.08
log10 IC50 (M) (DU-145): -4.66
log10 IC50 (M) (MDA-MB-231): -4.06
log10 IC50 (M) (NCI-H23): -4.7
log10 IC50 (M) (SF-268): -4.26
log10 IC50 (M) (RXF-631L): -4.37
log10 IC50 (M) (DMS273): -4.29
log10 IC50 (M) (NCI-H522): -5.69
log10 IC50 (M) (MCF-7): -4.19
log10 IC50 (M) (OVCAR-3): -4.82
log10 IC50 (M) (MKN45): -4.14
log10 IC50 (M) (SNB-75): -5.51
log10 IC50 (M) (SNB-78): -4.29
log10 IC50 (M) (DMS114): -4.72
Compound: N.N.O.O.O.O.O.O.O.O=P([O-])([O-])OC1C(OP(=O)([O-])[O-])C(OP(=O)([O-])[O-])C(OP(=O)([O-])[O][Pt+])C(OP(=O)([O-])[O-])C1OP(=O)([O-])[O-].[Na+].[Na+].[Na+].[Na+].[Na+].[Na+].[Na+].[Na+].[Na+].[Na+] (stereo not drawn) [Example 9, Pt(NH3)—IP6 Pt(NH3)2.IP6.10Na.7H2O]

IC50 (KB cells): 2.75 µM
Compound: cis-Pt(NH3)2Cl2
KB cells remaining/growth in percent (Table 2, untitled) (KB cells; 1 μg/ml): 17.0%
KB cells remaining/growth in percent (Table 2, untitled) (KB cells; 3 μg/mL): 13.4%
KB cells remaining/growth in percent (Table 1, untitled) (KB cells; 5 μM): 28.20%
KB cells remaining/growth in percent (Table 2, untitled) (KB cells; 10 μg/mL): 3.0%
KB cells remaining/growth in percent (Table 1, untitled) (KB cells; 15 μM): 13.80%
KB cells remaining/growth in percent (Table 2, untitled) (KB cells; 30 μg/mL): 2.2%
KB cells remaining/growth in percent (Table 1, untitled) (KB cells; 50 μM): 6.78%
KB cells remaining/growth in percent (Table 2, untitled) (KB cells; 100 μg/mL): 1.6%
KB cells remaining/growth in percent (Table 1, untitled) (KB cells; 150 μM): 4.34%
KB cells remaining/growth in percent (Table 1, untitled) (KB cells; 500 μM): 3.52%

Continued, compound first:

Compound: [NH2][Pt]1([NH2])[O]P(=O)(O)CP(=O)(O)[O]1 [Example 1, cis-Pt(NH3)2(MDP)]
adsorption percentage to hydroxyapatite [1]: 69.3%
adsorption to hydroxyapatite, comparison in words [1]: adsorbed quite significantly more than carboplatin

Compound: O=P1(O)CP(=O)(O)[O][Pt]2([NH][C@@H]3CCCC[C@H]3[NH]2)[O]1 (stereo partly drawn) [Example 2, Pt(dach)(MDP)]
adsorption percentage to hydroxyapatite [1]: 79.6%
adsorption to hydroxyapatite, comparison in words [1]: adsorbed slightly more than cis-Pt(NH3)2(MDP); also recorded: adsorbed quite significantly more than carboplatin

Compound: [Cl-].[Cl-].c1cc[n+]2c(c1)-c1cccc[n+]1[Pt-2]21[NH2+]CC[NH+]1Cc1c2ccccc2cc2ccccc12 [Example 4, [Pt(bpy)(Aten)]Cl2]
log10 IC50 (M) (HBC-5): -4.12
log10 IC50 (M) (HCC2998): -4.81
log10 IC50 (M) (HCT-116): -4.37
log10 IC50 (M) (SF-539): -4.82
log10 IC50 (M) (ACHN): -4.2
log10 IC50 (M) (HBC-4): -4.14
log10 IC50 (M) (MKN74): -4.75
log10 IC50 (M) [2]: -4.54
log10 IC50 (M) (NCI-H460): -5.23
log10 IC50 (M) (St-4): -4.74
log10 IC50 (M) (SF-295): -4.9
log10 IC50 (M) (KM-12): -4.77
log10 IC50 (M) (PC-3): -4.22
log10 IC50 (M) (OVCAR-8): -4.37
log10 IC50 (M) (BSY-1): -4.89
log10 IC50 (M) (SK-OV-3): -4.77
KB cells remaining/growth in percent (Table 2, untitled) (KB cells; 1 μg/ml): 93.8%
KB cells remaining/growth in percent (Table 2, untitled) (KB cells; 3 μg/mL): 81.4%
KB cells remaining/growth in percent (Table 2, untitled) (KB cells; 10 μg/mL): 75.3%
KB cells remaining/growth in percent (Table 2, untitled) (KB cells; 30 μg/mL): 73.2%
KB cells remaining/growth in percent (Table 2, untitled) (KB cells; 100 μg/mL): 32.5%
IC50 (KB cells): 97 µM
log10 IC50 (M) (OVCAR-5): -4.79
log10 IC50 (M) (OVCAR-4): -4.19
log10 IC50 (M) (U251): -4.84
log10 IC50 (M) (LOX-IMVI): -4.46
log10 IC50 (M) (DU-145): -4.33
log10 IC50 (M) (MDA-MB-231): -4.5
log10 IC50 (M) (A549): -4.69
log10 IC50 (M) (NCI-H23): -4.18
log10 IC50 (M) (SF-268): -4.83
log10 IC50 (M) (RXF-631L): -4.89
log10 IC50 (M) (DMS273): -4.85
log10 IC50 (M) (MCF-7): -4.23
log10 IC50 (M) (NCI-H226): -4.83
log10 IC50 (M) (OVCAR-3): -4.13
log10 IC50 (M) (MKN7): -4.45
log10 IC50 (M) (MKN45): -4.68
log10 IC50 (M) (SNB-75): -4.77
log10 IC50 (M) (MKN28): -4.34
log10 IC50 (M) (SNB-78): -4.56
log10 IC50 (M) (HT-29): -4.57
log10 IC50 (M) (DMS114): -4.89
